In BindingDB's records for doi:10.1021/acsmedchemlett.3c00236 (Smith, Gambrell & Russell, 2023):

Test: Inhibition of NLRP3 in human THP-1 cells assessed as reduction in pyroptosis preincubated for 3 hrs followed by nigericin addition and measured after 1 hr by resazurin dye based microplate reader analysis

Compound CCN1CCC[C@H](Nc2nc3nc(-c4c(C)cc(Cl)c(F)c4O)ccc3o2)C1 has an IC50 of 0.6 nM.
